# Experimental data reported in patent publication US20190175557A1, “COMPOUNDS USEFUL FOR DECREASING INTERFERON LEVEL” (priority 2016, published 2019).
# Legend:
# [1] = tested on: HIV-stimulated pDC; assay: IFN-α / type I IFN production by HIV-stimulated purified pDC (ELISA); format: cell-based, human
# [2] = tested on: Flu-stimulated pDC; assay: IFN-α production and membrane TRAIL by pDC cultured with Flu or Dengue; format: cell-based, human
# Procedure: PBMC were seeded at 1.10^6/1 mL or purified pDC were seeded at 5.10^4/100 μl and then stimulated with the following viruses: inactivated AT-2 HIV-1MN (CXCR4 co-receptor specific) or AT-2 HIV-1ADA (CCR5 co-receptor specific) at 60 ng/mL p24^CA equivalent (provided by J. D. Lifson (SAIC-NCI, Frederick, Md.)), Infectious human Influenza A/PR/8/34 virus (Flu), titer 1:8192 at dilution 1:1000 or DENV-2 16681 at MOI 10. Infectious HIV-1MN [tissue culture 50% infective dose (TCID50)=[…]] and HIV-1ADA (TCID50=1,000) were used at the same concentration. Purified pDC were pre-treated with amino compounds for 1 hour, following overnight stimulation with virus. Supernatants were collected for cytokine detection. Microvesicles isolated from uninfected cell cultures matched to the culture to produce the virus were used as negative control (Mock).
# The compounds were added in pDC culture at 10 μM (or other if specified) 1 hour before stimulation or not of the different viruses. For histamine, X-vivo culture media (Lonza) was used in order to avoid histaminases.
# Cells were pre-incubated 1 hour with AMD (20 μM) (Sigma-Aldrich, MO, USA) prior to CB or histamine incubation. pDC were cultured in the presence of […] of the oligodinucleotide A151 (TTAGGG) ODN (Integrated DNA Technologies, Coralville, Iowa). […]
# [3] = tested on: Flu-stimulated pDC from wild type and H4R KO mice; format: cell-based, mouse; conditions: CB 10 μM, overnight Influenza A
# [4] = tested on: HIV-stimulated pDC; assay: Activation markers and cytokine mRNA in HIV-stimulated pDC (RT-qPCR, flow cytometry); format: cell-based, human
# [5] = tested on: flu-exposed human PBMC; format: cell-based; conditions: cells pre-treated before Flu exposure, human PBMC
# [6] = tested on: 129S8 mice infected with Influenza A virus strain X31 (H3N2); conditions: mouse, in vivo
# [7] = tested on: pristane-induced SLE in Balb/c mice; assay: Pristane-induced systemic lupus erythematosus (SLE) model in Balb/c mice; format: in vivo, mouse; conditions: 3, 10, 30 mg/kg IP QD
# Procedure: Receive and quarantine (SOP 560) 70 female Balb/C (20-25 g) mice and house in filter-topped cages supplied with autoclaved bedding.
# The animals are weighed, ear tagged for individual identification and randomly assigned to 8 treatment groups of 8 animals each and two groups of 3 animals (for pre-tolerance at 30 mg/kg of survival).
# The test items compounds clobenpropit (CB) and IT1t are stored at 4° C.
# Mouse weights are recorded twice a week, and daily observations for clinical signs.
# Collected sera are stored at −80° C. for measurements of autoantibody on weeks 4, 8 and 10. (Predose will kept at −80° C. for potential use). Anti-dsDNA level is a standard screening readout for identifying efficacy of test compounds in a SLE model.
# Measurements: weeks 4, 8, 10: (1) autoantibody (anti-dsDNA), collagen and cytokines TNFα, IL-6 and TRAIL by ELISA and (2) ANA antibody by IFA.
# [8] = tested on: human primary PBMC
# [9] = biological target: CXCR4 (Homo sapiens, UniProt P61073)
# Chain of CXCR4 (P61073 whole entry): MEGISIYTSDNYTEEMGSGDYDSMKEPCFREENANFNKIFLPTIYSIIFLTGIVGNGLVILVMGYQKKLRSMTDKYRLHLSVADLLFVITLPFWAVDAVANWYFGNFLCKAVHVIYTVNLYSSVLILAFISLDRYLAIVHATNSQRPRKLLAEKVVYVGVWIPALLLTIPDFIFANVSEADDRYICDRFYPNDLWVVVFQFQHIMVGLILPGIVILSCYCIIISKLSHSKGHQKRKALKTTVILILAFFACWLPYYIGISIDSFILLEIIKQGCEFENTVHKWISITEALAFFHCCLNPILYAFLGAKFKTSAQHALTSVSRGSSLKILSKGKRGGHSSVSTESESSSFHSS
structure (smiles),measurement,setting,value
"NC(=NCc1ccc(Cl)cc1)SCCCc1cnc[nH]1 [Clobenpropit, clobenpropit]",IFN-α production kinetics by HIV-stimulated pDC,[1]; after 9 h of incubation,inhibited
same,inhibitory effect on pDC activation / IFN-α production by HIV-1,"[1]; purified pDC, 10 μM",stronger inhibitory effect than histamine
same,reduction of levels of IFN-α secreted following HIV stimulation,"[1]; purified pDC, 10 μM, ELISA",approximately 90%
same,IFN-α production and membrane TRAIL expression by pDC cultured with Flu and Dengue,[2],strongly inhibited
same,IFN-α production by Flu-stimulated pDC from H4R KO mice,[3],inhibited
same,IFN-α production by Flu-stimulated pDC from wild type mice,[3],inhibited
same,iNOS or IL-15 gene expression,"[4]; HIV-1-stimulated pDC, RT-qPCR",neither CB nor FFN-511 affected
same,"transcription of virus-induced genes (TRAIL, IFNs, IL6, IL8, IL10, CXCL10, ISG56) induced in pDC by HIV-1","[4]; RT-qPCR profiling, normalized to RPL13A",dramatically inhibited
same,IFN-α/β and IFN-λ2/3 mRNA levels,[5],significantly reduced
same,"IFN-α, IFN-β and IFN-λ2/3 protein production in bronchioalveolar lavage (BAL) fluid",[6],strong reduction
same,symptoms of pristane-Induced Systemic Lupus Erythematosus,[7],reduce symptoms
same,body weight during the study,[7]; compared to dose started date,no loss of body weight
same,ds-DNA level,[7]; compared to group 1 (vehicle),inhibition
same,Therapeutic index (Ratio TC50/EC50),[8],17.4
same,effect of CXCR4 silencing on the inhibitory effect,[9]; pDC activated by a CCR5-tropic (R5) HIV-1 and Flu,blocked
same,effect of CXCR4 gene silencing on the inhibitory effect on type I IFN and TRAIL,[9]; pDC stimulated by CXCR4-tropic HIV-1,suppressed
